Data taken from patent US20130273649A1, “Culture medium for pluripotent stem cells” (UNIVERSITY OF SOUTHERN CALIFORNIA, priority 2012, published 2013).

What was measured:
[1] = test system: mouse EpiSCs; test: Mouse EpiSC self-renewal culture; type: cell-based; conditions: for EpiSC self-renewal / maintenance of undifferentiated state: CD1 mouse EpiSCs, GMEM/10% FBS, no FGF2/activin unless named, CHIR 3 μM, PD0325901 1 μM, XAV939 2 μM, IWR-1 2.5 μM, IWP-2 2.5 μM, Pyrvinium 100 nM
Description: We therefore reasoned that if CHIR induces EpiSC differentiation through stabilization of β-catenin, de-stabilization of β-catenin might promote EpiSC self-renewal. We tested this hypothesis by administering the tankyrase inhibitor XAV939 to mouse EpiSC cultures. XAV939-mediated inhibition of tankyrase stabilizes Axin, leading to the formation of the β-catenin destruction complex, composed of GSK3, Axin and adenomatous polyposis coli (APC) (Huang et al., 2009). […] EpiSCs cultured in CHIR/XAV could be routinely passaged by single-cell dissociation and replating onto gelatin-coated dishes, and could be cryo-preserved and recovered at high efficiency by standard techniques.
final concentrations: CHIR99021 (3 μM), PD0325901 (1 μM), XAV939 (Sigma, 2 μM), IWR-1 (Sigma, 2.5 μM), IWP-2 (Stemgent, 2.5 μM), Pyrvinium (Sigma, 100 nM), recombinant human FGF2 (PeproTech, 10 ng/ml), and recombinant human activin A (PeproTech, 10 ng/ml). CHIR99021 and PD0325901 were synthesized in the Division of Signal Transduction Therapy, University of Dundee, UK.
The basal medium for mouse EpiSC culture is the conventional mouse ESC medium, which consists of GMEM (Sigma) supplemented with 10% fetal bovine serum (FBS) (Hyclone), 2 mM L-glutamine (Invitrogen), 1 mM sodium pyruvate (Invitrogen), 1% nonessential amino acids (Invitrogen), and 0.1 mM (3-mercaptoethanol. Mouse EpiSCs were derived and maintained in the basal medium supplemented with FGF2/activin, CHIR/XAV, or CHIR/IWR-1. The basal medium for rat EpiSC culture is N2B27 (Tong et al., 2011), which was prepared by mixing 500 ml of DMEM/F12 (Invitrogen) with 500 ml of Neurobasal™ medium (Invitrogen), and adding 5 ml of N2 (Invitrogen), 10 ml of B27 (Invitrogen), 5 ml of Glutamax™ (Invitrogen), and 1 ml of 0.1 M β-mercaptoethanol (Sigma). The basal medium for human ESC culture consists of Knockout™ DMEM/F12 supplemented with 20% KSR (Invitrogen), 1% nonessential amino acids, 2 mM L-glutamine, and 0.1 mM (3-mercaptoethanol. Human ESCs were cultured in the basal medium supplemented with FGF2, CHIR/XAV, or CHIR/IWR-1.
Post-implantation epiblasts were isolated from mouse or rat embryos and dissociated into small clumps as previously described (Chenoweth and Tesar, 2010). Epiblast fragments were placed into 4-well plates pre-coated with 0.1% gelatin (for mouse epiblasts) or pre-seeded with γ-irradiated mouse embryonic fibroblasts (MEFs) (for rat epiblasts) and cultured in either the FGF2/activin or the CHIR/XAV conditions. Emerging EpiSCs were trypsinized and expanded every 2-3 days at a subculture ratio of 1:4. Animal experiments were performed according to the investigator's protocols approved by the University of Southern California Institutional Animal Care and Use Committee.

[2] = test system: Axin1; test: Western blot of Axin1 in mouse EpiSCs; type: cell-based; conditions: CD1 mouse EpiSCs treated 12 h
Description: (A) TOPFlash™ assay in CD1 mouse EpiSCs treated with the indicated inhibitors for 12 hours. Data represent mean±s.d. of three biological replicates. (B) Representative phase contrast images of CD1 mouse EpiSCs cultured in the indicated conditions for 7 days. (C) Western blot analysis of CD1 mouse EpiSCs treated with the indicated inhibitors for 12 h. (D) qRT-PCR analysis of Axin1 and Axin2 mRNA levels in CD1 mouse EpiSCs stably transfected with Axin1 shRNA or Axin2 shRNA. Data represent mean±s.d. of three biological replicates. (E) Colony assay on CD1 mouse EpiSCs stably transfected with scramble, Axin1, or Axin2 shRNAs. Cells were plated onto a 6-well plate at a density of 5,000 cells/well and cultured in CHIR/IWR-1. Colonies were counted 7 days after plating. Data represent the total combined numbers of colonies from two independent experiments in which each shRNA-transfected group was cultured in one well of a 6-well plate. (F) Representative phase contrast images of CD 1 mouse EpiSCs stably transfected with the indicated shRNAs and cultured in CHIR/IWR-1 for 7 days. (G) Western blot analysis of CD1 mouse EpiSCs overexpressing Flag-tagged Axin1 or Axin2. (H) Representative phase contrast images of CD1 mouse EpiSCs overexpressing Axin1 or Axin2 and cultured in CHIR for 7 days. Axin2-overexpressing EpiSCs could be continually passaged in CHIR alone. Scale bars, 50 μm (B, F and H)
Next, we investigated the mechanism by which CHIR/XAV promotes EpiSC self-renewal. By inhibiting GSK3 phosphorylation of β-catenin, CHIR stabilizes β-catenin, which then trans-locates to the nucleus and forms complexes with DNA-binding proteins, including TCFs, to activate transcription (Logan and Nusse, 2004). […] Axin has two isoforms, Axin1 and Axin2. […] The expression level of Axin2, but not Axin1, was also elevated by CHIR treatment (FIG. 4C), an outcome consistent with previous findings that Axin2 is a direct downstream target of Wnt/β-catenin signaling (Jho et al., 2002). […]

## Oc1nc(-c2ccc(C(F)(F)F)cc2)nc2c1CSCC2 [XAV939, 3,5,7,8-Tetrahydro-2-[4-(trifluoromethyl)phenyl]-4H-thiopyrano[4,3-d]pyrimidin-4-one]
[1]
  EpiSC self-renewal / maintenance of undifferentiated state: differentiated after passaging
[1]; XAV939 alone, before passaging
  time EpiSCs remained undifferentiated: approximately 1 week
[2]
  amount of Axin1 protein: significantly increased

## Cc1c[nH]c(-c2cnc(NCCNc3ccc(C#N)cn3)nc2-c2ccc(Cl)cc2Cl)n1 [CHIR99021, 6-((2-((4-(2,4-Dichlorophenyl)-5-(4-methyl-1H-imidazol-2-yl)pyrimidin-2-yl)amino)ethyl)amino)nicotinonitrile]
[1]; 3 μM CHIR after removal of FGF2/activin
  self-renewal of β-catenin−/− EpiSCs overexpressing Axin2: differentiated after the removal of FGF2/activin, even in the presence of CHIR
[1]; Axin1-EpiSCs, CHIR after removal of FGF2/activin
  self-renewal of Axin1-overexpressing EpiSCs: rapidly differentiated
[1]; Axin2-EpiSCs, CHIR alone after removal of FGF2/activin
  self-renewal of Axin2-overexpressing EpiSCs: sufficient to support robust and long-term expansion of undifferentiated Axin2-EpiSCs
[1]
  EpiSC self-renewal / maintenance of undifferentiated state: rapidly differentiated or died
[2]
  amount of Axin1 protein: not Axin1
